What was measured:
Assay in all cases: Bliss excess, mean over the matrix (fraction); higher = more synergy
[1] = test system: U-266 (Plasma Cell Myeloma)
Procedure, shortened: (§1)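 Cell lines in DMEM/F12 or RPMI with 10% FBS were plated in 1536-well plates, held 24 hours at 37°C, 5% CO2, then given two-drug dose matrices for 72 hours (DMSO typically 0.2%). Viability was read by CellTiter-Glo 2.0 luminescence and scaled as inhibition from 0 (vehicle wells) to 1 (blank wells). Combination Emax is the second-highest inhibition in the matrix; Bliss excess is observed combination effect minus expected EA + EB − EA·EB, EA and EB being single-agent effects.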

[2] = test system: HCC2157 (Breast Carcinoma)
Procedure, shortened: as §1

IGR-1 (Melanoma) = test system: IGR-1 (Melanoma)
Procedure, shortened: as §1

[3] = test system: CFPAC-1 (Pancreatic Carcinoma)
Procedure, shortened: as §1

[4] = test system: LU-99A (Non-Small Cell Lung Carcinoma)
Procedure, shortened: as §1

CAL-78 (Chondrosarcoma) = test system: CAL-78 (Chondrosarcoma)
Procedure, shortened: as §1

[5] = test system: NCI-H1793 (Lung Adenocarcinoma)
Procedure, shortened: as §1

[6] = test system: SW1088 (Low Grade Glioma)
Procedure, shortened: as §1

[7] = test system: KARPAS-620 (Plasma Cell Myeloma)
Procedure, shortened: as §1

J82 (Bladder Carcinoma) = test system: J82 (Bladder Carcinoma)
Procedure, shortened: as §1

[8] = test system: CTV-1 (T-Lymphoblastic Leukemia)
Procedure, shortened: as §1

[9] = test system: COR-L95 (Small Cell Lung Carcinoma)
Procedure, shortened: as §1

[10] = test system: COR-L23 (Non-Small Cell Lung Carcinoma)
Procedure, shortened: as §1

[11] = test system: SNU-C5 (Colorectal Carcinoma)
Procedure, shortened: as §1

[12] = test system: TGBC24TKB (Biliary Tract Carcinoma)
Procedure, shortened: as §1

[13] = test system: SW756 (Cervical Carcinoma)
Procedure, shortened: as §1

[14] = test system: KATOIII (Gastric Carcinoma)
Procedure, shortened: as §1

[15] = test system: HT-29 (Colorectal Carcinoma)
Procedure, shortened: as §1

[16] = test system: MDA-MB-231 (Breast Carcinoma)
Procedure, shortened: as §1

[17] = test system: SW1990 (Pancreatic Carcinoma)
Procedure, shortened: as §1

| SMILES | Bliss excess [1] | Bliss excess [2] | Bliss excess (IGR-1 (Melanoma)) | Bliss excess [3] | Bliss excess [4] | Bliss excess (CAL-78 (Chondrosarcoma)) | Bliss excess [5] | Bliss excess [6] | Bliss excess [7] | Bliss excess (J82 (Bladder Carcinoma)) | Bliss excess [8] | Bliss excess [9] | Bliss excess [10] | Bliss excess [11] | Bliss excess [12] | Bliss excess [13] | Bliss excess [14] | Bliss excess [15] | Bliss excess [16] | Bliss excess [17] |
| --- | --- | --- | --- | --- | --- | --- | --- | --- | --- | --- | --- | --- | --- | --- | --- | --- | --- | --- | --- | --- |
| Cc1c2c(nn1C)CSCc1cc(n(C)n1)CSc1cc(c3ccccc3c1)OCCCc1c(C(=O)O)n(C)c3c-2c(Cl)ccc13 [AZD5991] + C[C@@H]1COCCN1C2=NC(=NC(=C2)C3(CC3)[S@](=N)(=O)C)C4=C5C=CNC5=NC=C4 [AZD6738] (first compound max 1 µM, 7x7, partner max 10 µM) | 0.0624 | 0.0155 | 0.105 | 0.0442 | -0.0152 | 0.0335 | 0.0097 | -0.0048 | 0.0243 | 0.0009 | 0.0021 | 0.0482 | -0.0121 | -0.011 | -0.006 | 0.02 | -0.0192 | 0.0165 | 0.0132 | -0.0062 |
| Cc1c2c(nn1C)CSCc1cc(n(C)n1)CSc1cc(c3ccccc3c1)OCCCc1c(C(=O)O)n(C)c3c-2c(Cl)ccc13 [AZD5991] + C[C@@H](Nc1cc(F)cc(F)c1)c1cc(C(=O)N(C)C)cc2c(=O)cc(N3CCOCC3)oc12 [AZD8186] (first compound max 1 µM, 7x7, partner max 3 µM) | -0.0496 | 0.0105 | -0.0031 | -0.0077 | -0.0534 | -0.0799 | -0.0254 | 0.0098 | -0.0113 | 0.0359 | -0.0144 | -0.0012 | -0.032 | 0.0464 | 0.0027 | 0.0162 | -0.0132 | -0.012 | -0.015 | -0.0948 |
| Cc1c2c(nn1C)CSCc1cc(n(C)n1)CSc1cc(c3ccccc3c1)OCCCc1c(C(=O)O)n(C)c3c-2c(Cl)ccc13 [AZD5991] + Cc1cc2ncnn2cc1Nc1ncc2c(n1)n(C1CCOCC1)c(=O)n2C [AZD7648] (first compound max 1 µM, 7x7, partner max 10 µM) | 0.0078 | 0.0283 | -0.0642 | -0.002 | -0.0397 | -0.0448 | -0.0112 | -0.0665 | 0.0308 | -0.0231 | -0.0169 | -0.0957 | -0.0076 | -0.0085 | -0.0102 | -0.0367 | -0.0305 | 0.0049 | -0.0397 | -0.0398 |
| Cc1c2c(nn1C)CSCc1cc(n(C)n1)CSc1cc(c3ccccc3c1)OCCCc1c(C(=O)O)n(C)c3c-2c(Cl)ccc13 [AZD5991] + Cn1cnc2c(F)c(Nc3ccc(Br)cc3Cl)c(C(=O)NOCCO)cc21 [Selumetinib] (first compound max 1 µM, 7x7, partner max 3 µM) | 0.0068 | -0.0137 | 0.0239 | 0.0044 | -0.0363 | -0.0288 | 0.0133 | -0.0543 | 0.0919 | -0.0073 | 0.036 | -0.039 | -0.0051 | -0.0107 | 0.0488 | -0.0058 | -0.0085 | -0.006 | 0.0135 | -0.0222 |
| C[C@@H]1COCCN1c1cc(C2([S@](C)(=N)=O)CC2)nc(-c2ccnc3[nH]ccc23)n1 [AZD6738] + O=C(c1cc(Cc2n[nH]c(=O)c3ccccc23)ccc1F)N1CCN(C(=O)C2CC2)CC1 [Olaparib] (first compound max 10 µM, 7x7, partner max 10 µM) | 0.0151 | 0.0441 | 0.0059 | -0.0069 | -0.0289 | 0.0285 | -0.0153 | 0.0087 | -0.0168 | 0.031 | 0.043 | -0.0399 | -0.034 | -0.0258 | -0.0113 | -0.0158 | -0.0286 | -0.0014 | -0.0335 | -0.0071 |
| Cc1cc2ncnn2cc1Nc1ncc2c(n1)n(C1CCOCC1)c(=O)n2C [AZD7648] + C=CCn1c(=O)c2cnc(Nc3ccc(N4CCN(C)CC4)cc3)nc2n1-c1cccc(C(C)(C)O)n1 [AZD1775] (first compound max 10 µM, partner max 1 µM) | -0.0457 | -0.0133 | -0.0255 | 0.0525 | -0.0262 | -0.0147 | 0.0622 | -0.0479 | -0.0493 | -0.008 | 0.0096 | -0.0543 | -0.0588 | 0.0457 | 0.0098 | -0.0211 | -0.0052 | -0.0091 | 0.0218 | -0.0255 |

— the supplement of paper PMC11061612
